From PubChem BioAssay AID1963958 (Molecular Pharmacology Branch, DTP, NCI, 2024)

Tested on: MDA-MB-231 multicell spheroids, viability
Assay: Anticancer human tumor MDA-MB-231 cell line growth inhibition [PI3K];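 further: spheroids exposed to agents for seven days before reading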;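 on viability, T/C: percent of vehicle control luminescence with DMSO treated spheroids as 100%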
Settings: for IC50: curve of first compound; for viability, T/C: stronger effect = lower value
Outline: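 Tumor cells grown as multi-cell spheroids with HUVEC endothelial cells and MSC fibroblast-like stroma were treated with targeted agents combined with inavolisib, alpelisib, duvelisib or copanlisib. Doses fell in half-log steps from near clinical Cmax, else from 10 microM. Viability was measured.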

[1] = second compound 0.00316 µM, first compound 0.00316 µM
[2] = second compound 0.00316 µM, first compound 0.01 µM
[3] = second compound 0.00316 µM, first compound 0.0316 µM
[4] = second compound 0.00316 µM, first compound 0.1 µM
[5] = second compound 0.01 µM, first compound 0.00316 µM
[6] = second compound 0.01 µM, first compound 0.01 µM
[7] = second compound 0.01 µM, first compound 0.0316 µM
[8] = second compound 0.01 µM, first compound 0.1 µM
[9] = second compound 0.0316 µM, first compound 0.00316 µM
[10] = second compound 0.0316 µM, first compound 0.01 µM
[11] = second compound 0.0316 µM, first compound 0.0316 µM
[12] = second compound 0.0316 µM, first compound 0.1 µM
[13] = second compound 0.1 µM, first compound 0.00316 µM
[14] = second compound 0.1 µM, first compound 0.01 µM
[15] = second compound 0.1 µM, first compound 0.0316 µM
[16] = second compound 0.1 µM, first compound 0.1 µM
[17] = second compound 0.316 µM, first compound 0.00316 µM
[18] = second compound 0.316 µM, first compound 0.01 µM
[19] = second compound 0.316 µM, first compound 0.0316 µM
[20] = second compound 0.316 µM, first compound 0.1 µM
[21] = second compound 1 µM, first compound 0.00316 µM
[22] = second compound 1 µM, first compound 0.01 µM
[23] = second compound 1 µM, first compound 0.0316 µM
[24] = second compound 1 µM, first compound 0.1 µM

CCN1CCN(Cc2ccc(Nc3ncc(F)c(-c4cc(F)c5nc(C)n(C(C)C)c5c4)n3)nc2)CC1 + COc1c(OCCCN2CCOCC2)ccc2c3n(c(=NC(=O)c4cnc(N)nc4)nc12)CCN3
IC50 (second compound 0.00316 µM): 195 nM | IC50 (second compound 0.01 µM): 65.4 nM | IC50 (second compound 0.0316 µM): 8.45 nM | IC50 (second compound 0.1 µM): < 3.16 nM | IC50 (second compound 0.316 µM): < 3.16 nM | IC50 (second compound 1 µM): < 3.16 nM | viability, T/C [1]: 89% | viability, T/C [2]: 79.4% | viability, T/C [3]: 72.3% | viability, T/C [4]: 52.1% | viability, T/C (second compound 0.00316 µM, first compound 0.316 µM): 47.7% | viability, T/C (second compound 0.00316 µM, first compound 1 µM): 45.1% | viability, T/C [5]: 77.8% | viability, T/C [6]: 66.2% | viability, T/C [7]: 57.2% | viability, T/C [8]: 46.5% | viability, T/C (second compound 0.01 µM, first compound 0.316 µM): 39.7% | viability, T/C (second compound 0.01 µM, first compound 1 µM): 40.2% | viability, T/C [9]: 56% | viability, T/C [10]: 50.9% | viability, T/C [11]: 43.9% | viability, T/C [12]: 38.4% | viability, T/C (second compound 0.0316 µM, first compound 0.316 µM): 35.9% | viability, T/C (second compound 0.0316 µM, first compound 1 µM): 39.6% | viability, T/C [13]: 45.1% | viability, T/C [14]: 40% | viability, T/C [15]: 33.4% | viability, T/C [16]: 27.9% | viability, T/C (second compound 0.1 µM, first compound 0.316 µM): 31% | viability, T/C (second compound 0.1 µM, first compound 1 µM): 38.1% | viability, T/C [17]: 30% | viability, T/C [18]: 27.2% | viability, T/C [19]: 24.1% | viability, T/C [20]: 22.4% | viability, T/C (second compound 0.316 µM, first compound 0.316 µM): 28% | viability, T/C (second compound 0.316 µM, first compound 1 µM): 42.7% | viability, T/C [21]: 24.6% | viability, T/C [22]: 22.5% | viability, T/C [23]: 22.4% | viability, T/C [24]: 25.5% | viability, T/C (second compound 1 µM, first compound 0.316 µM): 43.7% | viability, T/C (second compound 1 µM, first compound 1 µM): 83.2%

Cn1ncnc1[C@H]1c2n[nH]c(=O)c3cc(F)cc(c23)N[C@@H]1c1ccc(F)cc1 + COc1c(OCCCN2CCOCC2)ccc2c3n(c(=NC(=O)c4cnc(N)nc4)nc12)CCN3
IC50 (second compound 0.00316 µM): > 100 nM | IC50 (second compound 0.01 µM): > 100 nM | IC50 (second compound 0.0316 µM): 38.4 nM | IC50 (second compound 0.1 µM): < 0.316 nM | IC50 (second compound 0.316 µM): < 0.316 nM | IC50 (second compound 1 µM): < 0.316 nM | viability, T/C (second compound 0.00316 µM, first compound 0.000316 µM): 94% | viability, T/C (second compound 0.00316 µM, first compound 0.001 µM): 89.6% | viability, T/C [1]: 91.4% | viability, T/C [2]: 78.5% | viability, T/C [3]: 78.5% | viability, T/C [4]: 72.9% | viability, T/C (second compound 0.01 µM, first compound 0.000316 µM): 76.4% | viability, T/C (second compound 0.01 µM, first compound 0.001 µM): 76.7% | viability, T/C [5]: 68.9% | viability, T/C [6]: 64.8% | viability, T/C [7]: 67.2% | viability, T/C [8]: 60.3% | viability, T/C (second compound 0.0316 µM, first compound 0.000316 µM): 57.8% | viability, T/C (second compound 0.0316 µM, first compound 0.001 µM): 59.2% | viability, T/C [9]: 53.8% | viability, T/C [10]: 53.5% | viability, T/C [11]: 51.7% | viability, T/C [12]: 46.1% | viability, T/C (second compound 0.1 µM, first compound 0.000316 µM): 46.4% | viability, T/C (second compound 0.1 µM, first compound 0.001 µM): 46.6% | viability, T/C [13]: 43% | viability, T/C [14]: 43.7% | viability, T/C [15]: 39.7% | viability, T/C [16]: 37.5% | viability, T/C (second compound 0.316 µM, first compound 0.000316 µM): 31.8% | viability, T/C (second compound 0.316 µM, first compound 0.001 µM): 32.3% | viability, T/C [17]: 32.4% | viability, T/C [18]: 29.6% | viability, T/C [19]: 30.1% | viability, T/C [20]: 25.7% | viability, T/C (second compound 1 µM, first compound 0.000316 µM): 24.4% | viability, T/C (second compound 1 µM, first compound 0.001 µM): 23.5% | viability, T/C [21]: 24.6% | viability, T/C [22]: 23.5% | viability, T/C [23]: 25.7% | viability, T/C [24]: 22.4%
